# Data published in patent US9315491B2 (DEVELOPMENT CENTER FOR BIOTECHNOLOGY, priority 2009, dated 2016).
# Target: recombinant mTOR (Homo sapiens (Human), UniProt P42345)
# Test: mTOR kinase assay (33P incorporation into 4EBP1)
# Assay type: biochemical
# Conditions: compound at 10 μM, 10 μM ATP
# Description: The activity of the compound against mTOR was examined by measuring the incorporation of ^33P from [γ-^33P]-ATP into 4EBP1. His-tagged, recombinant human 4EBP1 was expressed in E. coli, purified by nickel-nitrilotriacetic acid (Ni-NTA) resins, and stored at −80° C. Phosphorylation of 4EBP1 by mTOR was assayed in the presence or absence of the compound and performed in a final volume of 25 μl reaction buffer containing 300 ng 4EBP1, 50 ng recombinant mTOR (Invitrogen), 50 mM HEPES (pH 7.5), 1 mM EGTA, 0.01% Polysorbate 20, 10 mM MnCl2, 2.5 mM DTT, 10 μM ATP, and 0.5 μCi [γ-33P]-ATP (PerkinElmir) for 30 min at 30° C. The reactions were terminated by adding 3% phosphoric acid. The ^33P labeled 4EBP1 was transferred onto UniFilter-96 GF/B plate (PerkinElmer) and quantified by Top Count Microplate Scintillation Counter (PerkinElmer). For primary screening of kinase activity inhibition, each test compound was evaluated at […] in duplicate. […] The IC50 values of the compounds were determined after carrying out assays at eight serially diluted concentrations of each compound in duplicate. The results were analyzed using linear regression software (GraphPad Prism 5; GraphPad Software Inc.).
# IC50 value is defined as the concentration of the test compound which achieves a half-maximal inhibition of the kinase activity.
# Sequence of recombinant mTOR (P42345 1360-2549): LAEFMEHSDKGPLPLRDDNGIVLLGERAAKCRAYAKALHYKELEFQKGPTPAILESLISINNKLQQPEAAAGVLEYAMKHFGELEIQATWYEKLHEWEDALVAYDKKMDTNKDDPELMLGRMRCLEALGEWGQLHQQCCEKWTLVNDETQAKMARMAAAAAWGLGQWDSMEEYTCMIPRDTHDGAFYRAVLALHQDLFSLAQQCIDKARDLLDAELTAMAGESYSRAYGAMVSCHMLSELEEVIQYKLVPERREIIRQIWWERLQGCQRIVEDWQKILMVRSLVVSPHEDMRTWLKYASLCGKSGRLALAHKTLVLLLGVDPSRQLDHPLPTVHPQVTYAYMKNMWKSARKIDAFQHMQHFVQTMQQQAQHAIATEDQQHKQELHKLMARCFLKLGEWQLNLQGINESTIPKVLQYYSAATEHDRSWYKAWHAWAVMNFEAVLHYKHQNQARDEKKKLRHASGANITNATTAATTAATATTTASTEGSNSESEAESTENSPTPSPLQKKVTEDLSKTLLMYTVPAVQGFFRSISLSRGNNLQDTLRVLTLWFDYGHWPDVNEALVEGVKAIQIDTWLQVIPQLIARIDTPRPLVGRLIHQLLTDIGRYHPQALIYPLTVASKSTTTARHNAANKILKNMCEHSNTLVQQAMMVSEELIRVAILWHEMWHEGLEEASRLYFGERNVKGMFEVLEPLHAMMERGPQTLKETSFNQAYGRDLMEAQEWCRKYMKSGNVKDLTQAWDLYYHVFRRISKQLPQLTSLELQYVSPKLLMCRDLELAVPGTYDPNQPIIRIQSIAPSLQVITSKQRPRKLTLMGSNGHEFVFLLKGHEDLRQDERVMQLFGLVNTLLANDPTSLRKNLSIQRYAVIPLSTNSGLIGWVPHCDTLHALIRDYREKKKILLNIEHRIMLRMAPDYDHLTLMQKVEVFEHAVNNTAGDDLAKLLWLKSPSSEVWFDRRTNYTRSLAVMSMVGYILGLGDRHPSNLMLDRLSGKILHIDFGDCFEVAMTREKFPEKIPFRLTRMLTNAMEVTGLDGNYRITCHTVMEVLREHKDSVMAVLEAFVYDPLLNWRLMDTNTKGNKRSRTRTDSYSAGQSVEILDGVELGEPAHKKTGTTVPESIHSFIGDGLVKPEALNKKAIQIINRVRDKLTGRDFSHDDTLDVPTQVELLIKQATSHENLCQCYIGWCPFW
row,Structure (SMILES),inhibition at 10 µM [%]
1,"CCOC(=O)c1nc(-c2cccc(O)c2)nc(N2CCOCC2)c1OCC [MTR-0037, 5-Ethoxy-2-(3-hydroxy-phenyl)-6-morpholin-4-yl-pyrimidine-4-carboxylic acid ethyl ester]",98
2,"CCOC(=O)c1nc(-c2ccc3[nH]ccc3c2)nc(N2CCOCC2)c1OCC [MTR-0054, 5-Ethoxy-2-(1H-indol-5-yl)-6-morpholin-4-yl-pyrimidine-4-carboxylic acid ethyl ester]",81
3,"CCOC(=O)c1nc(-c2cccc(O)c2)nc(N2CCOCC2)c1OC [MTR-0073, 2-(3-Hydroxy-phenyl)-5-methoxy-6-morpholin-4-yl-pyrimidine-4-carboxylic acid ethyl ester]",86
4,"CCOC(=O)c1nc(-c2ccc(NC(=O)Nc3ccc(Cl)nc3)cc2)nc(N2CCOCC2)c1OCC [MTR-0079, 2-{4-[3-(6-Chloro-pyridin-3-yl)-ureido]-phenyl}-5-ethoxy-6-morpholin-4-yl-pyrimidine-4-carboxylic acid ethyl ester]",83
5,"CCOC(=O)c1nc(-c2ccc(NC(=S)Nc3ccccc3)cc2)nc(N2CCOCC2)c1OCC [MTR-0102, 5-Ethoxy-6-morpholin-4-yl-2-[4-(3-phenyl-thioureido)-phenyl]-pyrimidine-4-carboxylic acid ethyl ester]",81
6,"CSc1c(Cl)nc(-c2ccc(NC(=O)NCCCl)cc2)nc1N1CCOCC1 [MTR-0108, 1-(2-Chloro-ethyl)-3-[4-(4-chloro-5-methylsulfanyl-6-morpholin-4-yl-pyrimidin-2-yl)-phenyl]-urea]",89
7,"CCOc1c(C(=O)N(CC)CC)nc(-c2ccc(NC(=O)Nc3ccccc3)cc2)nc1N1CCOCC1 [MTR-0120, 5-Ethoxy-6-morpholin-4-yl-2-[4-(3-phenyl-ureido)-phenyl]-pyrimidine-4-carboxylic acid diethylamide]",98
8,"CCOc1c(C(=O)NCCN2CCOCC2)nc(-c2ccc(NC(=O)Nc3ccccc3)cc2)nc1N1CCOCC1 [MTR-0139, 5-Ethoxy-6-morpholin-4-yl-2-[4-(3-phenyl-ureido)-phenyl]-pyrimidine-4-carboxylic acid (2-morpholin-4-yl-ethyl)-amide]",85
9,"CCOc1c(C(=O)N2CCCC2)nc(-c2ccc(NC(=O)Nc3ccccc3)cc2)nc1N1CCOCC1 [MTR-0141, 1-{4-[5-Ethoxy-4-morpholin-4-yl-6-(pyrrolidine-1-carbonyl)-pyrimidin-2-yl]-phenyl}-3-phenyl-urea]",96
10,"CCOC(=O)c1nc(-c2ccc(NC(=O)Nc3ccc(F)c(F)c3)cc2)nc(N2CCOCC2)c1OCC [MTR-0150, 2-{4-[3-(3,4-Difluoro-phenyl)-ureido]-phenyl}-5-ethoxy-6-morpholin-4-yl-pyrimidine-4-carboxylic acid ethyl ester]",87
11,"CCOc1c(CN2CCN(C)CC2)nc(-c2ccc(NC(=O)Nc3ccccc3)cc2)nc1N1CCOCC1 [MTR-0172, 1-{4-[5-Ethoxy-4-(4-methyl-piperazin-1-ylmethyl)-6-morpholin-4-yl-pyrimidin-2-yl]-phenyl}-3-phenyl-urea]",86
12,"CCOc1c(C(=O)N2CCN(C)CC2)nc(-c2ccc(NC(=O)Nc3ccccc3)cc2)nc1N1CCOCC1 [MTR-0186, 1-{4-[5-Ethoxy-4-(4-methyl-piperazine-1-carbonyl)-6-morpholin-4-yl-pyrimidin-2-yl]-phenyl}-3-phenyl-urea]",96
13,"CCOc1c(CN2CCCCC2)nc(-c2ccc(NC(=O)Nc3ccccc3)cc2)nc1N1CCOCC1 [MTR-0193, 1-[4-(5-Ethoxy-4-morpholin-4-yl-6-piperidin-1-ylmethyl-pyrimidin-2-yl)-phenyl]-3-phenyl-urea]",81
14,"CSc1c(Cl)nc(-c2ccc(NC(=O)Nc3ccc(N4CCOCC4=O)cc3)cc2)nc1N1CCOCC1 [MTR-0213, 1-[4-(4-Chloro-5-methylsulfanyl-6-morpholin-4-yl-pyrimidin-2-yl)-phenyl]-3-[4-(3-oxo-morpholin-4-yl)-phenyl]-urea]",84

# Results, then the compound that gave them:
row,inhibition at 10 µM [%],Structure (SMILES)
1,89,COc1cnc(-c2ccc(NC(=S)Nc3ccc(F)cc3)cc2)nc1N1CCOCC1
2,87,"CSc1c(Cl)nc(-c2ccc(NC(=O)Nc3ccc(Cl)nc3)cc2)nc1N1CCOCC1 [MTR-0077, 1-[4-(4-Chloro-5-methylsulfanyl-6-morpholin-4-yl-pyrimidin-2-yl)-phenyl]-3-(6-chloro-pyridin-3-yl)-urea]"
3,86,"CSc1c(Cl)nc(-c2ccc(O)cc2)nc1N1CCOCC1 [MTR-0098, 4-(4-Chloro-5-methylsulfanyl-6-morpholin-4-yl-pyrimidin-2-yl)-phenol]"
4,81,"COc1cnc(-c2cccc(O)c2)nc1N1CCOCC1 [MTR-0116, 3-(5-Methoxy-4-morpholin-4-yl-pyrimidin-2-yl)-phenol]"
5,94,"CCOc1c(C(=O)O)nc(-c2ccc(NC(=O)Nc3ccccc3)cc2)nc1N1CCOCC1 [MTR-0118, 5-Ethoxy-6-morpholin-4-yl-2-[4-(3-phenyl-ureido)-phenyl]-pyrimidine-4-carboxylic acid]"
6,94,"CCOC(=O)c1nc(-c2ccc(NC(N)=O)cc2)nc(N2CCOCC2)c1OCC [MTR-0121, 5-Ethoxy-6-morpholin-4-yl-2-(4-ureido-phenyl)-pyrimidine-4-carboxylic acid ethyl ester]"
7,91,"CSc1c(Cl)nc(-c2ccc(NC(=O)Nc3ccc(N(C)C)cc3)cc2)nc1N1CCOCC1 [MTR-0123, 1-[4-(4-Chloro-5-methylsulfanyl-6-morpholin-4-yl-pyrimidin-2-yl)-phenyl]-3-(4-dimethylamino-phenyl)-urea]"
8,96,"CCOc1c(C(N)=O)nc(-c2ccc(NC(=O)Nc3ccccc3)cc2)nc1N1CCOCC1 [MTR-0125, 5-Ethoxy-6-morpholin-4-yl-2-[4-(3-phenyl-ureido)-phenyl]-pyrimidine-4-carboxylic acid amide]"
9,96,"CCNC(=O)Nc1ccc(-c2ncc(OC)c(N3CCOCC3)n2)cc1 [MTR-0129, 1-Ethyl-3-[4-(5-methoxy-4-morpholin-4-yl-pyrimidin-2-yl)-phenyl]-urea]"
10,84,"CSc1c(Cl)nc(-c2ccc(NC(=O)Nc3cccc(F)c3)cc2)nc1N1CCOCC1 [MTR-0137, 1-[4-(4-Chloro-5-methylsulfanyl-6-morpholin-4-yl-pyrimidin-2-yl)-phenyl]-3-(3-fluoro-phenyl)-urea]"
11,93,"CCOC(=O)c1nc(-c2ccc(NC(=O)Nc3ccc(F)cc3)cc2)nc(N2CCOCC2)c1OCC [MTR-0149, 5-Ethoxy-2-{4-[3-(4-fluoro-phenyl)-ureido]-phenyl}-6-morpholin-4-yl-pyrimidine-4-carboxylic acid ethyl ester]"
12,97,"CCNC(=O)Nc1ccc(-c2ncc(SC)c(N3CCOCC3)n2)cc1 [MTR-0159, 1-Ethyl-3-[4-(5-methylsulfanyl-4-morpholin-4-yl-pyrimidin-2-yl)-phenyl]-urea]"
13,84,"CSc1cnc(-c2ccc(NC(=O)Nc3ccc(F)c(F)c3)cc2)nc1N1CCOCC1 [MTR-0177, 1-(3,4-Difluoro-phenyl)-3-[4-(5-methylsulfanyl-4-morpholin-4-yl-pyrimidin-2-yl)-phenyl]-urea]"
14,95,"COc1c(C(=O)O)nc(-c2ccc(NC(=O)Nc3ccccc3)cc2)nc1N1CCOCC1 [MTR-0183, 5-Methoxy-6-morpholin-4-yl-2-[4-(3-phenyl-ureido)-phenyl]-pyrimidine-4-carboxylic acid]"
15,87,"CSc1c(Cl)nc(-c2ccc(NC(=O)NCCN3CCOCC3)cc2)nc1N1CCOCC1 [MTR-0198, 1-[4-(4-Chloro-5-methylsulfanyl-6-morpholin-4-yl-pyrimidin-2-yl)-phenyl]-3-(2-morpholin-4-yl-ethyl)-urea]"
16,84,"CSc1c(Cl)nc(-c2ccc(NC(=O)Nc3nccs3)cc2)nc1N1CCOCC1 [MTR-0200, 1-[4-(4-Chloro-5-methylsulfanyl-6-morpholin-4-yl-pyrimidin-2-yl)-phenyl]-3-thiazol-2-yl-urea]"
17,96,"CNC(=O)Nc1ccc(-c2ncc(SC)c(N3CCOCC3)n2)cc1 [MTR-0210, 1-Methyl-3-[4-(5-methylsulfanyl-4-morpholin-4-yl-pyrimidin-2-yl)-phenyl]-urea]"
18,85,"CCOC(=O)c1ccc(NC(=O)Nc2ccc(-c3nc(Cl)c(SC)c(N4CCOCC4)n3)cc2)cc1 [MTR-0212, 4-{3-[4-(4-Chloro-5-methylsulfanyl-6-morpholin-4-yl-pyrimidin-2-yl)-phenyl]-ureido}-benzoic acid ethyl ester]"
19,85,"CSc1c(Cl)nc(-c2ccc(NC(=O)Nc3ccc(N4CCOCC4)nc3)cc2)nc1N1CCOCC1 [MTR-0237, 1-[4-(4-Chloro-5-methylsulfanyl-6-morpholin-4-yl-pyrimidin-2-yl)-phenyl]-3-(6-morpholin-4-yl-pyridin-3-yl)-urea]"
20,89,"COc1ccc(NC(=O)Nc2ccc(-c3ncc(OC)c(N4CCOCC4)n3)cc2)cc1OC [MTR-0239, 1-(3,4-Dimethoxy-phenyl)-3-[4-(5-methoxy-4-morpholin-4-yl-pyrimidin-2-yl)-phenyl]-urea]"
